Measured values reported in USRE39282E1, “Nucleic acid derivatives” (SmithKline Beecham Corporation, priority 1989, dated 2006).
Read-outs that look alike come from different tables or passages of the source.

Tested on: HIV-1 isolates
Assay: plaque-reduction assay with HT4-6C cell monolayers, HIV isolates from untreated and treated individuals
Type: cell-based
Procedure: The isolation of HIV-1 was achieved according to methodology reported by Larder et al. PBL samples were prepared by separation on “Ficoll-hypaque” gradients and co-cultivated directly with MT-2 cells (approximately 10^6 of each) after pre-stimulation for 24 to 72 hours with phytohaemag-glutinin (3 μg/ml). In many cases PBLs were cultured after long-term frozen storage. Cultures were maintained in RPMI 1640 supplemented with 10% fetal bovine serum, antibiotics, 2% interleukin-2, and polybrene (2 μg/ml) and expanded by addition of fresh MT-2 cells when a cytopathic effect was observed (between 4 and 14 days). HIV replication was confirmed by the detection of p24 antigen in culture supernatants (p24 antigen detection kit, Abbott, Chicago, Ill.). Virus were prepared from infected cultures and stored in aliquots at −70° C. […] (Larder, B. A., Darby, G., Richman, D., Science, 243, 1731, (1989)).

SMILES: Cc1cn([C@H]2C[C@H](N=[N+]=[N-])[C@@H](CO)O2)c(=O)[nH]c1=O [zidovudine, 3′-Azido-3′-deoxythymidine]
- IC50 (Human immunodeficiency virus 1, read-out: ZIDOVUDINE SENSITIVITY (ID50 μM), HIV isolate A012D, 26 months of therapy, RT 67 Asn, 70 Arg, 215 Phe, 219 Gln): 2 µM
- IC50 (Human immunodeficiency virus 1, read-out: ZIDOVUDINE SENSITIVITY (ID50 μM), HIV isolate A018C, 14 months of therapy, RT 67 Asn, 70 Arg, 215 Tyr, 219 Gln): 2.3 µM
- IC50 (Human immunodeficiency virus 1, read-out: ZIDOVUDINE SENSITIVITY (ID50 μM), HIV isolate A036C, 11 months of therapy, RT 67 Asp, 70 Lys, 215 Tyr, 219 Lys): 0.6 µM
- IC50 (Human immunodeficiency virus 1, read-out: ZIDOVUDINE SENSITIVITY (ID50 μM), HIV isolate A036D, 20 months of therapy, RT 67 Asn, 70 Arg, 215 Tyr, 219 Lys): 5.6 µM
- IC50 (Human immunodeficiency virus 1, read-out: ZIDOVUDINE SENSITIVITY (ID50 μM), HIV isolate P022C, 16 months of therapy, RT 67 Asn, 70 Arg, 215 Phe, 219 Gln): 1.4 µM
- IC50 (Human immunodeficiency virus 1, read-out: ZIDOVUDINE SENSITIVITY (ID50 μM), HIV isolate P035A, 6 months of therapy, RT 67 Asp, 70 Lys, 215 Tyr, 219 Lys): 0.56 µM
- IC50 (Human immunodeficiency virus 1, read-out: ZIDOVUDINE SENSITIVITY (Mean ID50, μM), HIV isolate A012D, Table 2): 2.56 µM
- IC50 (Human immunodeficiency virus 1, read-out: Zidovudine Sensitivity (ID50 μM), HIV isolate A001A, 0 months of therapy, RT sequence wild type, Table 3): 0.03 µM
- IC50 (Human immunodeficiency virus 1, read-out: Zidovudine Sensitivity (ID50 μM), HIV isolate A001B, 12 months of therapy, RT sequence R70 and N67 R70 Q219, Table 3): 0.11 µM
- IC50 (Human immunodeficiency virus 1, read-out: Zidovudine Sensitivity (ID50 μM), HIV isolate A012D, 26 months of therapy, RT N67 R70 F215 Q219, Table 3): 2 µM
- IC50 (Human immunodeficiency virus 1, read-out: Zidovudine Sensitivity (ID50 μM), HIV isolate A018C, 14 months of therapy, RT N67 R70 Y215 Q219, Table 3): 4 µM
- IC50 (Human immunodeficiency virus 1, read-out: Zidovudine Sensitivity (ID50 μM), HIV isolate A025A, 24 months of therapy, RT R70, Table 3): 0.11 µM
- IC50 (Human immunodeficiency virus 1, read-out: Zidovudine Sensitivity (ID50 μM), HIV isolate A036C, 11 months of therapy, RT Y215, Table 3): 0.67 µM
- IC50 (Human immunodeficiency virus 1, read-out: Zidovudine Sensitivity (ID50 μM), HIV isolate A036D, 20 months of therapy, RT N67 R70 Y215, Table 3): 5.6 µM
